Details: Liquid, Vibrating tube method

c1ccccc1 [benzene]
mass density [kg/m3]
Details	293 K	313 K	333 K	353 K	373 K	393 K	413 K	433 K	448 K	468 K
2100 kPa	877.4	857	835.1	813.1	790.7	767.6	743	716.7	696	666.9
3100 kPa	878.1	857.8	836	814.2	792.1	769.4	745.1	719.4	699.2	670.7
4100 kPa	878.8	858.7	837	815.4	793.4	770.9	747	721.8	702.1	674.3
5000 kPa	879.6	859.6	838	816.5	794.7	772.5	748.8	724	704.8	677.8
10100 kPa	883.4	863.9	842.7	822.3	801.4	780	758	735.4	717.8	693.2
20000 kPa	890.4	871.5	851.8	832.3	812.9	793	773.2	753	738	717
30000 kPa	896.9	878.7	859.4	841.2	823.1	804.5	786.2	767.8	754.2	735.1
40000 kPa	902.9	885.2	867	849.5	832.3	814.6	797.5	780.3	767.8	750.3
50000 kPa	908.6	891.6	874.2	857	840.7	824	807.8	791.6	779.8	763.6
60000 kPa	914	897.5	880.8	864.3	848.2	832.6	817.2	801.7	790.6	775.5
70000 kPa	919.6	902.9	886.7	871.2	855.7	841	825.8	811	800.3	786.1

— the NIST ThermoML archive (doi:10.1016/j.fluid.2016.09.021)
